According to paper PMC11809180, “RA-PR058, a novel ramalin derivative, reduces BACE1 expression and phosphorylation of tau in Alzheimer’s disease mouse models” (Animal Cells and Systems, 2025):

How the values were obtained:
3xTg-AD mice = experiment: Elevated plus maze test in 3xTg-AD mice; type: in vivo, mouse; conditions: 20 mg/kg oral daily for 1 month, vs vehicle-treated 3xTg-AD
Experimental: 3xTg-AD (B6;129-Tg(APPSwe,tauP301L)1Lfa Psen1^tm1Mpm/Mmjax) mice and their littermate wild-type (WT) mice were used in this study. Each experimental group consisted of 4–8 mice, with groups designated as WT, 3xTg-AD Vehicle, and 3xTg-AD RA-PR058. All mice were maintained in a 12-hour light/dark cycle with free access to food and water. 7-month-old age of mice were administered with 20 mg/kg of RA-PR058 orally once a day for 1 month followed by the elevated plus maze test. All animal experimental procedures were approved by the Institutional Animal Care and Use Committee of Sungkyunkwan University (SKKUIACUC2022-10-41-1).
The elevated plus maze (EPM) test is a widely used behavioral assay to assess anxiety-like behavior in mice (Walf and Frye [2007]). After administering RA-PR058 for 1 month, EPM was performed to evaluate its effects. Briefly, the mouse was placed in the center of the maze, facing an open arm, and allowed to explore freely for 5 minutes. Behavioral patterns were recorded and analyzed by EthoVision software (Noldus). Data were used to assess the effects of RA-PR058 on anxiety-like behavior compared to control mice.

[1] = tested on: 5xFAD hippocampal neurons; experiment: vGlut1-pHluorin (vG-pH) synaptic transmission assay in primary hippocampal neurons; type: cell-based, mouse
Experimental: Hippocampal CA1-CA3 regions were isolated from postnatal (0–3 d old) 5xFAD mice. For dissociation, the dissected tissues were incubated with trypsin (Sigma) and DNase (Sigma) for 10 minutes at 37 ℃, followed by gentle trituration with pipette. 4.0–5.0 × 10^4 cells were plated on poly-ornithine-coated coverslips. Cells were maintained in culture media consisting of Neurobasal™-A Medium (Gibco) supplemented with GlutaMAX™ Supplement (Gibco) and B-27™ Supplement (Gibco) in a humidified incubator set at 37 ℃ with 5% CO2. Neurons were transfected 7 days after plating and further incubated for 14–21 days in culture medium. All results are obtained from at least three independent primary cultures. […]
For optical imaging, primary cultured hippocampal neurons were transfected with vGlut1-pHluorin (vG-pH) using the Ca^2+ phosphate precipitation method, as previously described (Bae et al. ([2020])). […] Fluorescence excitation/emission and collection were achieved using a 40 × Fluar Zeiss objective lens (1.3 NA) and 500–550 nm emission and 498 nm dichroic filters (Chroma). […]
All images were analyzed using ImageJ with plugin Time Series Analyzer. Synaptic boutons were selected as oval regions of interest (diameter, 10 pixels), and the intensity of fluorescence at synapses was measured. Fluorescence traces were analyzed using Origin Pro.

Cl.N[C@@H](CCC(=O)NNc1ccccc1F)C(F)F [RA-PR058, (S)-4-amino-5,5-difluoro-N'-(2-fluorophenyl)pentanehydrazide hydrochloride]
Time spent in open arms of the EPM (3xTg-AD mice): significantly more time | Recovery of synaptic transmission dysfunction ([1]; 5xFAD hippocampal neurons, 10 μM RA-PR058, 100 AP at 10 Hz, did not reach statistical significance): partially recovered | Mean amplitude of 100AP vG-pH response ([1]; RA-PR058 treated 5xFAD hippocampal neurons, 10 Hz for 10 s, normalized to maximal NH4Cl response, mean ± SEM, n = 6, untreated 5xFAD 0.11 ± 0.01, WT 0.20 ± 0.01): 0.15 ± 0.03
